6 compounds from ChEMBL document CHEMBL4342466, “Novel, Self-Assembling Dimeric Inhibitors of Human β Tryptase” (J Med Chem, 2020) can be followed below.

Calls of active or inactive are those of the source. No cut-off for these calls is given here.

Data set [1] is described as follows: Stability in human liver microsomes assessed as parent compound remaining at 15 uM in absence of NADPH incubated for 60 mins. Format: ADME, Microsome. The note with it: liver microsomes, read-out: Stability. (Microsomes from liver hold many membrane-bound enzymes, among them those of drug oxidation.)
A short description of data set [2]: Stability in mouse liver microsomes assessed as parent compound remaining at 15 uM in presence of NADPH incubated for 60 mins. Format: ADME, Microsome. As to conditions: read-out: Stability.
The next data set addresses CYP2D6 (Homo sapiens, UniProt P10635). The experiment in a line: Inhibition of CYP2D6 (unknown origin) at 10 uM relative to control. The class given is ADME.
Data set [3] in a line: Inhibition of human recombinant beta-tryptase pre-incubated for 3 hrs before N-tert-butoxycarbonyl-Gln-Ala-Arg-AMC substrate addition and measured every 30 secs for 15 mins by spectrometry.
Data set [4] can be described thus: Stability in rat liver microsomes assessed as parent compound remaining at 15 uM in presence of NADPH incubated for 60 mins. The note with it: read-out: Stability. The class given is ADME, Microsome.
Data set [5] is described as follows: Stability in rat liver microsomes assessed as parent compound remaining at 15 uM in absence of NADPH incubated for 60 mins. Format: ADME, Microsome. As to conditions: read-out: Stability.
Data set [6] can be described thus: Effective permeability assessed as mass retention by PAMPA method. The class given is ADME. For orientation: PAMPA measures passive passage across an artificial lipid membrane.
The target of the next data set is CYP2C9 (Homo sapiens, UniProt P11712). Briefly: Inhibition of CYP2C9 (unknown origin) at 10 uM relative to control. Format: ADME.
Sequence of CYP2C9 (P11712 whole entry): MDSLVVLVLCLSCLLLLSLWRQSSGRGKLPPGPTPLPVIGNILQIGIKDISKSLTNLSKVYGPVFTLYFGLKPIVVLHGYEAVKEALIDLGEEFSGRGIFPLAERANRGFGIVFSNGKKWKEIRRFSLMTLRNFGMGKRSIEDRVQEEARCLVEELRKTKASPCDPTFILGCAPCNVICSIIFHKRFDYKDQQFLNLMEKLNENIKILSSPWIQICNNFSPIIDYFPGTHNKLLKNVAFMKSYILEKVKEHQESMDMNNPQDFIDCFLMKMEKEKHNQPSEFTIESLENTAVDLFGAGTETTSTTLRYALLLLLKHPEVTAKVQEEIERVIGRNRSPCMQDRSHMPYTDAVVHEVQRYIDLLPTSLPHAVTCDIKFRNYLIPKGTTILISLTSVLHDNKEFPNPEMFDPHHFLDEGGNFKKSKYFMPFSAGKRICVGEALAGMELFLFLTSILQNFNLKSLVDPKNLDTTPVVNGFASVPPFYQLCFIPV
The nature of data set [7]: Dissociation constant, pKa of the compound (NH3*) by pH metric assay. The class given is physicochemical.
Data set [8] can be described thus: Apparent permeability from apical to basolateral side in MDCK cells. Format: ADME, cell-based, Canis lupus familiaris. The note with it: dog.
The target in another data set is T1, CYP1A2 (Homo sapiens, UniProt P05177).
T1 sequence (P05177 whole entry): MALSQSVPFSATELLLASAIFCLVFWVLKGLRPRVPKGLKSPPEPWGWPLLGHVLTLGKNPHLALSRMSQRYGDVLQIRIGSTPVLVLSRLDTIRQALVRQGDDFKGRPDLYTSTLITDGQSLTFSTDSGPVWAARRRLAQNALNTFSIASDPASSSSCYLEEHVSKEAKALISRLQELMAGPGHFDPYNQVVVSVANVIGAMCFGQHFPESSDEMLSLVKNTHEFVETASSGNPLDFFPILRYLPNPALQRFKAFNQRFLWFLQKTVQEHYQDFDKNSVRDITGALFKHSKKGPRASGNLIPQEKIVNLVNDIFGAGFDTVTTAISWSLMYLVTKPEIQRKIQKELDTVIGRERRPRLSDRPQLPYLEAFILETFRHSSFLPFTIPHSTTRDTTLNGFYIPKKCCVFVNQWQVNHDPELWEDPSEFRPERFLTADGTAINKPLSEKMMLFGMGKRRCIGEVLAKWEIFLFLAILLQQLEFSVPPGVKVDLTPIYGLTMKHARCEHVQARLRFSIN
Briefly: Inhibition of CYP1A2 (unknown origin) at 10 uM relative to control. Format: ADME.

Data set [9] is described as follows: Stability in human liver microsomes assessed as parent compound remaining at 15 uM in presence of NADPH incubated for 60 mins. The note with it: liver microsomes, read-out: Stability. Format: ADME, Microsome.
Data set [10] can be described thus: Stability in mouse liver microsomes assessed as parent compound remaining at 15 uM in absence of NADPH incubated for 60 mins. The class given is ADME, Microsome. As to conditions: read-out: Stability.
A further data set deals with CYP3A4 (Homo sapiens, UniProt P08684). Briefly: Inhibition of CYP3A4 (unknown origin) at 10 uM relative to control. The class given is ADME.
Sequence of CYP3A4 (P08684 whole entry): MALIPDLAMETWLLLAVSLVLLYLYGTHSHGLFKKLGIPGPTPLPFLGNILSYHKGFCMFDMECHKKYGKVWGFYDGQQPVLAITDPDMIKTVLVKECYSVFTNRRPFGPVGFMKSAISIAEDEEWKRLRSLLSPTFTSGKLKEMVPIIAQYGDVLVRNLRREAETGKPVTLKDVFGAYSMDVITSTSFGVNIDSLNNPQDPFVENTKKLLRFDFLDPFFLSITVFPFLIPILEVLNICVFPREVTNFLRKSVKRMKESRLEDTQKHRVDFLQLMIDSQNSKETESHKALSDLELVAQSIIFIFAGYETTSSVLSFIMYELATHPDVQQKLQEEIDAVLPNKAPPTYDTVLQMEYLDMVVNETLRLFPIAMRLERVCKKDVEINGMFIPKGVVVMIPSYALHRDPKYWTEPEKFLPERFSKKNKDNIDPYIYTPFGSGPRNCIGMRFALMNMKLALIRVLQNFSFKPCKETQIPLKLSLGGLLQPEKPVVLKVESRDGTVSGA
Data set [11] in a line: Dissociation constant, pKa of the compound (B(OH)2) by UV metric assay. Format: physicochemical.
The nature of data set [12]: Effective permeability from apical to basolateral side in PAMPA method. The class given is ADME. The note with it: read-out: Peff.
Another data set deals with CYP2C19 (Homo sapiens, UniProt P33261). Briefly: Inhibition of CYP2C19 (unknown origin) at 10 uM relative to control. Format: ADME.
Sequence of CYP2C19 (P33261 whole entry): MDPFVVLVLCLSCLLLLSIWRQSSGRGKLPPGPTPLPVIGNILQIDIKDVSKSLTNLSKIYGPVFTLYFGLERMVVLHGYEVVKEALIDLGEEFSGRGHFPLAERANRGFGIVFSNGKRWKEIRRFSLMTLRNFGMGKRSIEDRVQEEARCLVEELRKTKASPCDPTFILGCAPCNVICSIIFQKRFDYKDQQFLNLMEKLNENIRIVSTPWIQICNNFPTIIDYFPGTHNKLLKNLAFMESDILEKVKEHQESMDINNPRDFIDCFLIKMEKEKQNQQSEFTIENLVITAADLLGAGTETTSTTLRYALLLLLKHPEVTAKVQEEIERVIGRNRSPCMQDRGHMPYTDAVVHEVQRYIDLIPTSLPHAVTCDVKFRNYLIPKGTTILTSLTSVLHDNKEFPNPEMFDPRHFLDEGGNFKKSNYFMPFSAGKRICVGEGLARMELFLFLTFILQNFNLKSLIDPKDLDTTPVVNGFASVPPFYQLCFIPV
Data set [13] in a line: Dissociation constant, pKa of the compound (B(OH)2) by pH metric assay. Format: physicochemical.
The nature of data set [14]: Plasma concentration in mouse xenografted with human HMC1 cells at 10 mg/kg, iv dosed at time 0 and again 24 hrs later and measured at 2 hrs after second dose by LC-MS/MS analysis. Format: ADME, organism-based. (In xenograft studies the graft and the host belong to different species.)
The nature of data set [15]: Plasma concentration in mouse xenografted with human HMC1 cells at 10 mg/kg, iv dosed at time 0 and again 24 hrs later and measured at 0 hrs after second dose by LC-MS/MS analysis. The class given is ADME, organism-based.
The nature of data set [16]: Drug concentration in tumor of mouse xenografted with human HMC1 cells at 10 mg/kg, iv dosed at time 0 and again 24 hrs later and measured at 8 hrs after second dose by LC-MS/MS analysis. The class given is ADME, organism-based, Neoplasm. As to conditions: read-out: Drug uptake.
Data set [17] is described as follows: Drug concentration in tumor of mouse xenografted with human HMC1 cells at 10 mg/kg, iv dosed at time 0 and again 24 hrs later and measured at 24 hrs after second dose by LC-MS/MS analysis. Format: ADME, organism-based, Neoplasm. The note with it: read-out: Drug uptake.
A short description of data set [18]: Drug concentration in tumor of mouse xenografted with human HMC1 cells at 10 mg/kg, iv dosed at time 0 and again 24 hrs later and measured at 0 hrs after second dose by LC-MS/MS analysis. Format: ADME, organism-based, Neoplasm. As to conditions: read-out: Drug uptake.
Data set [19] is described as follows: Plasma concentration in mouse xenografted with human HMC1 cells at 10 mg/kg, iv dosed at time 0 and again 24 hrs later and measured at 8 hrs after second dose by LC-MS/MS analysis. The class given is ADME, organism-based.
Data set [20] in a line: Drug concentration in tumor of mouse xenografted with human HMC1 cells at 10 mg/kg, iv dosed at time 0 and again 24 hrs later and measured at 2 hrs after second dose by LC-MS/MS analysis. Format: ADME, organism-based, Neoplasm. The note with it: read-out: Drug uptake.
A short description of data set [21]: Plasma concentration in mouse xenografted with human HMC1 cells at 10 mg/kg, iv dosed at time 0 and again 24 hrs later and measured at 24 hrs after second dose by LC-MS/MS analysis. The class given is ADME, organism-based.
A short description of data set [22]: Drug concentration in tumor of mouse xenografted with human HMC1 cells at 10 mg/kg, iv dosed at time 0 and again 24 hrs later and measured at 48 hrs after second dose by LC-MS/MS analysis. Format: ADME, organism-based, Neoplasm. The note with it: read-out: Drug uptake.
A short description of data set [23]: Half life in C57BL/6 mouse at 5 mg/kg, iv measured over 0.25 to 24 hrs by LC-MS/MS analysis. The class given is ADME, organism-based. The note with it: in vivo.
Data set [24] is described as follows: Clearance in C57BL/6 mouse at 5 mg/kg, iv measured over 0.25 to 24 hrs by LC-MS/MS analysis. As to conditions: in vivo. The class given is ADME, organism-based.
A further data set addresses T2, Tryptase beta-2 (Mus musculus, UniProt P21845).
T2 sequence (P21845 whole entry): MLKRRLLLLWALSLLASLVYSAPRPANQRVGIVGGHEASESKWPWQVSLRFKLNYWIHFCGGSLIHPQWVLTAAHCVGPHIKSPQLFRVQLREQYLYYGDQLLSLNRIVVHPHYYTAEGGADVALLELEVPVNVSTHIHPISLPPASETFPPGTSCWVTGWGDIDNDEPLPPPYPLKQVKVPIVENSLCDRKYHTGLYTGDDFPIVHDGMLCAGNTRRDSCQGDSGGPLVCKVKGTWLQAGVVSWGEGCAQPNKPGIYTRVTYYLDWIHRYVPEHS
Briefly: Inhibition of mouse MCP6 pre-incubated for 3 hrs before N-tert-butoxycarbonyl-Gln-Ala-Arg-AMC substrate addition and measured every 30 secs for 15 mins by spectrometry.

The nature of data set [25]: Stability in human liver microsomes assessed as parent compound remaining at 15 uM in presence of UDPGA incubated for 60 mins. As to conditions: liver microsomes, read-out: Stability. The class given is ADME, Microsome.
Data set [26] can be described thus: (§1) Inhibition of beta-tryptase in human HMC1 cells assessed as effect on A23187-induced degranulation. Format: cell-based.
The nature of data set [27]: (§2) Inhibition of beta-tryptase in human HMC1 cells assessed as effect on tryptase activity by measured cell lysis. The class given is cell-based.
For the next data set, the species on record is Homo sapiens. Briefly: Inhibition of human recombinant beta-tryptase assessed as remaining enzyme activity at 10 uM pre-incubated for 3 hrs before N-tert-butoxycarbonyl-Gln-Ala-Arg-AMC substrate addition and measured after 8 hrs by spectrometry relative to control.
Data set [28] deals with HMC1. The data set is described as §1. Format: cell-based.
Data set [29] has as its system HMC1. The description is as §2. The class given is cell-based.
The subject of another data set is Mus musculus. Briefly: Inhibition of tryptase activity in tumors of mouse xenografted with human HMC1 cells at 10 mg/kg, iv dosed at time 0 and again 24 hrs later and measured at 24 to 48 hrs after second dose. The class given is functional, organism-based.

Sequence of CYP2D6 (P10635 whole entry): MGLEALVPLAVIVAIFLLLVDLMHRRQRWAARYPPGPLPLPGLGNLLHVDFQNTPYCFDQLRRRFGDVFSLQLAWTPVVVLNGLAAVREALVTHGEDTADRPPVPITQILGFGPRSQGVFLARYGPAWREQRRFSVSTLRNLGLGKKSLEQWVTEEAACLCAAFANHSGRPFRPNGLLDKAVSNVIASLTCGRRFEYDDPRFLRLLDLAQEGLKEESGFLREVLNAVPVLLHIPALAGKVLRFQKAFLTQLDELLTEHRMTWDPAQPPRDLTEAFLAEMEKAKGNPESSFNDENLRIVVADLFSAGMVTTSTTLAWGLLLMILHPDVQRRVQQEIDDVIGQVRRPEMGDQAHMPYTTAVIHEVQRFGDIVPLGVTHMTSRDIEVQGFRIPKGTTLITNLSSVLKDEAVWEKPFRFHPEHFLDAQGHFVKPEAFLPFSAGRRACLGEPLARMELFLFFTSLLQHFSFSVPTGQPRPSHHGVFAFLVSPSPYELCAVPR

The inhibition is the share of the control response that was lost under treatment. As usually defined, the IC50 is the midpoint of a concentration-inhibition curve. By pKa is commonly meant the pH at which an ionisable group is half protonated. Higher therefore signals a weaker acid or stronger base. Usually Papp A→B stands for the apparent permeability from the apical to the basolateral side of a cell layer. Regarding `NCc1cccc(C2CCN(C(=O)c3cccc4ccc(B(O)O)cc34)CC2)c1`, the remaining at 1 h, 15 µM in data set [1] amounted to 97%; in [2], 99%; in data set [4] it was 100%; in data set [5], 100%; in data set [9], 100%; in [10] it was 100%. Further, the inhibition at 10 µM on CYP2D6 was 79%; against CYP2C9 it was 97%; at CYP1A2, 45%; against CYP3A4, 27%; against CYP2C19 it was 80%. Further, in [3], the IC50 is 15800 nM. In addition, the Activity in data set [6] is 96.2%. The pKa in data set [7] turned out to be 9.53; in [11] it was 8.51; in data set [13] it was 8.18. The apparent permeability from apical to basolateral (Papp A→B) in data set [8] was 0.28 ×10⁻⁶ cm/s. In [12], the Papp was 2.06 ×10⁻⁶ cm/s.
Consider `NCc1ccc2c(c1)C1(CCN(C(=O)c3cccc(-c4cccc(B(O)O)c4)c3)CC1)CO2.O=C(O)C(F)(F)F`, for which the concentration at 2 h in [14] is 1290 nM; in data set [20], 554 nM. Also, the concentration at 0 h in data set [15] amounted to 0.53 nM; in data set [18] it was 27.9 nM. The values for the concentration at 8 h in data set [16] and in data set [19] were 107 nM and 43 nM, respectively. The concentration at 24 h was found to be 2.14 nM in data set [17] and 0.14 nM in data set [21]. Besides, the concentration at 48 h in data set [22] amounted to 0.56 nM.
The half-life is how long it takes for the measured level to halve. Low readings indicate rapid decline, high ones slow decline. The term clearance denotes a measure of how efficiently the substance is removed, as volume per time. A higher clearance goes with a high capacity for elimination. As to `NCc1cccc(C2CCN(C(=O)c3ccc(O)c(O)c3)CC2)c1`, the results for the remaining at 1 h, 15 µM in data set [1], in data set [9] and in data set [25] were 43%, 52% and 53%, respectively. Further, the concentration for half-maximal inhibition (IC50) in data set [3] was 452 nM; against Tryptase beta-2 it was 2310 nM. In data set [23], this compound gave a half-life of 45.6 min. This compound also returned a clearance in data set [24] of 519 mL/min/kg.
Take `NCc1ccc2c(c1)C1(CCN(C(=O)c3cccc(-c4cccc(B5Oc6cc(C(=O)N7CCC8(CC7)COc7ccc(CN)cc78)cc(Cl)c6O5)c4)c3)CC1)CO2`: the IC50 in [26] turned out to be 240 nM; in data set [27] it was 5450 nM. Moreover, the Activity in the data set filed under Homo sapiens was found to be 50%.
In the case of `NCc1ccc2c(c1)C1(CCN(C(=O)c3cccc(-c4cccc(B(O)O)c4)c3)CC1)CO2`, the inhibition entry in the data set with HMC1 [28] and with Mus musculus was “Active” in each case. For the same compound, the inhibition entry with HMC1 [29] and in the data set listed under Homo sapiens was “inactive” throughout.
Turning to `NCc1ccc2c(c1)C1(CCN(C(=O)c3cc(O)c(O)c(Cl)c3)CC1)CO2`, the inhibition entry in the data set with HMC1 [28] and in the data set on Mus musculus was “Active” in each case. The inhibition entry with HMC1 [29] and in the data set listed under Homo sapiens was “inactive” throughout.
